Test results: PMC7865522, “Analyzing Kinase Similarity in Small Molecule and Protein Structural Space to Explore the Limits of Multi-Target Screening” (Molecules, 2021)

What was measured:
ErbB2 = target: T1, ErbB2 (Homo sapiens, UniProt P04626); test: Eurofins in vitro kinase inhibition assay; format: biochemical
T1 construct: purchased DiscoverX (KINOMEscan service); host or cells: E. coli BL21-derived host (T7 phage) or HEK-293
Procedure, shortened: (§1)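 Inhibition at 20 µM was expressed as % of control kinase activity (mean, SD); PI3K used an HTRF PIP3-displacement format, the other kinases a phosphorylation assay with ATP and substrate analog.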

BRAF = target: T2, BRAF (Homo sapiens, UniProt P15056); test: Eurofins in vitro kinase inhibition assay; format: biochemical; settings: 20 µM; Table 3; read-out: % inhib. at 20 µM, BRAF (Eurofins), printed as symbol
T2 construct: purchased DiscoverX (KINOMEscan service); host or cells: E. coli BL21-derived host (T7 phage) or HEK-293
T2 sequence (P15056 whole entry): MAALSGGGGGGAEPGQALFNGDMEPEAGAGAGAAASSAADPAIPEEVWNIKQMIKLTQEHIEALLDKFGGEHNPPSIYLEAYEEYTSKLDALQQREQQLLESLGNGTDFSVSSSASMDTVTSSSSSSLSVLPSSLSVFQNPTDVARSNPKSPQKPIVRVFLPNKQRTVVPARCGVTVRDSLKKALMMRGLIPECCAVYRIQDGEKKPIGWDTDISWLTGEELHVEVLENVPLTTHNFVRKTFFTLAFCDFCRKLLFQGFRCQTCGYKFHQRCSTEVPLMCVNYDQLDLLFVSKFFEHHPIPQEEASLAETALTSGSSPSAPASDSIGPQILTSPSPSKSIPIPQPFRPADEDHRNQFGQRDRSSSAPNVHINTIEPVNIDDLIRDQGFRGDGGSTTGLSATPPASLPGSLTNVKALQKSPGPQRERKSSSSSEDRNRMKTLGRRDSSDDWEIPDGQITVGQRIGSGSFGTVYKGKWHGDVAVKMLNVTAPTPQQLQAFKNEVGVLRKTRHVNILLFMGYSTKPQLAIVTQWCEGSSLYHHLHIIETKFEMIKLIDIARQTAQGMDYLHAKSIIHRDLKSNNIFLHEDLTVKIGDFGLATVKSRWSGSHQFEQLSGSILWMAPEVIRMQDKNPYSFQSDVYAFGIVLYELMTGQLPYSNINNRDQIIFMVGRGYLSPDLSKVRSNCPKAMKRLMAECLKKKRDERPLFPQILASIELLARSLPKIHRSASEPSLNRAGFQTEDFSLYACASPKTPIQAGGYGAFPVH
Procedure, shortened: as §1

PI3K [1] = target: T3, PI3K (Homo sapiens, UniProt P42336); test: DiscoverX KINOMEscan competition binding assay; parameters: purchased DiscoverX (KINOMEscan service); host or cells: E. coli BL21-derived host (T7 phage) or HEK-293; settings: compound 10 µM; lower values = higher affinity; below 35% = significant binding
Procedure, shortened: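 We measured displacement of kinase from a resin-bound standard ligand by 10 µM compound after 1 h incubation at room temperature, with qPCR detection of eluted kinase. Values below 35% of control count as significant binding.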
Target sequence in this assay (P42336 whole entry): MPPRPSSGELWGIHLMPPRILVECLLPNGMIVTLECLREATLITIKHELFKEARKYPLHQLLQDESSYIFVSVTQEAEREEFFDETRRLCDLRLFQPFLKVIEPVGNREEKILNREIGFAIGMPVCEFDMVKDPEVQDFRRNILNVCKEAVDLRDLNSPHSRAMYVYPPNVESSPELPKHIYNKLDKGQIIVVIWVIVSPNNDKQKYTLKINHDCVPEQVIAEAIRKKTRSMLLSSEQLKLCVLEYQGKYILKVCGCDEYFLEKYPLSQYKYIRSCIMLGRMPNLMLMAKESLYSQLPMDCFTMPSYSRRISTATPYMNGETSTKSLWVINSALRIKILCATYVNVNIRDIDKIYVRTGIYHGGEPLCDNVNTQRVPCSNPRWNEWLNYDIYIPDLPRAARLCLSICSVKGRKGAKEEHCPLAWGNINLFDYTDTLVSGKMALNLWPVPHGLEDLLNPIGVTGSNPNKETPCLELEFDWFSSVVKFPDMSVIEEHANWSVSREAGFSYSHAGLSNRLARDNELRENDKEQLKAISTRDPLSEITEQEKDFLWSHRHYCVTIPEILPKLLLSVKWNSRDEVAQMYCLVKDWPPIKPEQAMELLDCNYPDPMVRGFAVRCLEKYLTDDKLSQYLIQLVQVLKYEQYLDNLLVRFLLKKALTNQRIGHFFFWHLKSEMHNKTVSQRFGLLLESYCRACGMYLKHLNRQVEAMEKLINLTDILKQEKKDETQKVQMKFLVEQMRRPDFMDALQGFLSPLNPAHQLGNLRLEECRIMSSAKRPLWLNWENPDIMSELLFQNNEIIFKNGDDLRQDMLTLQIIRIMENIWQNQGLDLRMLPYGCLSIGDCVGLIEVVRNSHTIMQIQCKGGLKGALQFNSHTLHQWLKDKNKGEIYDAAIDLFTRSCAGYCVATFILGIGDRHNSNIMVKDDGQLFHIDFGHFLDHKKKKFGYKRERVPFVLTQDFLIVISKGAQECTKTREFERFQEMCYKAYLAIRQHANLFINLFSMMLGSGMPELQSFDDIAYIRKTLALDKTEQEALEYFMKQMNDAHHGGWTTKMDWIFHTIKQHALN

PI3K [2] = target: T3, PI3K; test: Eurofins in vitro kinase inhibition assay (HTRF, PIP3 displacement); format: biochemical; parameters: purchased Eurofins Cerep (contract assay); settings: compound 20 µM; mean (SD); above 50% significant, 25-50% weak
Procedure, shortened: as §1
Target sequence in this assay (P42336 whole entry): as above
Target sequence in this assay (P27986 whole entry partner): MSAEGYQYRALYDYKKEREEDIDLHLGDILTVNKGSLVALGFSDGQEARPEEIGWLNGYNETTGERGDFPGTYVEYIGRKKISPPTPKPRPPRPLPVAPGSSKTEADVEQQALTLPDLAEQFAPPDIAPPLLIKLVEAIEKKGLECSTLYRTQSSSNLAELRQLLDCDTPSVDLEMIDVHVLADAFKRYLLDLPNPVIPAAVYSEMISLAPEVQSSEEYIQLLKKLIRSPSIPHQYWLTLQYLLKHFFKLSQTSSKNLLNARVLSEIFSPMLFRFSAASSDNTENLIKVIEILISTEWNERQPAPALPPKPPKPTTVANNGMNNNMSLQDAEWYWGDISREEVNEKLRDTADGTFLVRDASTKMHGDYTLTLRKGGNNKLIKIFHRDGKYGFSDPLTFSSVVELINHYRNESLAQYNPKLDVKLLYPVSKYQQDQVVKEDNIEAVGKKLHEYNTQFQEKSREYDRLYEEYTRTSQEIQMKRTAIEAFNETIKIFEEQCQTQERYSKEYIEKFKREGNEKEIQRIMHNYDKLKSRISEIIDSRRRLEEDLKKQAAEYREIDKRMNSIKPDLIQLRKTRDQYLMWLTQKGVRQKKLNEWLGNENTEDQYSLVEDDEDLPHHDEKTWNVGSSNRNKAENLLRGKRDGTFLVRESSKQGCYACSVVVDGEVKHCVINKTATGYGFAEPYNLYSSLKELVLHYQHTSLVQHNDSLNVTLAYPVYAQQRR

T1 sequence (P04626 23-1255): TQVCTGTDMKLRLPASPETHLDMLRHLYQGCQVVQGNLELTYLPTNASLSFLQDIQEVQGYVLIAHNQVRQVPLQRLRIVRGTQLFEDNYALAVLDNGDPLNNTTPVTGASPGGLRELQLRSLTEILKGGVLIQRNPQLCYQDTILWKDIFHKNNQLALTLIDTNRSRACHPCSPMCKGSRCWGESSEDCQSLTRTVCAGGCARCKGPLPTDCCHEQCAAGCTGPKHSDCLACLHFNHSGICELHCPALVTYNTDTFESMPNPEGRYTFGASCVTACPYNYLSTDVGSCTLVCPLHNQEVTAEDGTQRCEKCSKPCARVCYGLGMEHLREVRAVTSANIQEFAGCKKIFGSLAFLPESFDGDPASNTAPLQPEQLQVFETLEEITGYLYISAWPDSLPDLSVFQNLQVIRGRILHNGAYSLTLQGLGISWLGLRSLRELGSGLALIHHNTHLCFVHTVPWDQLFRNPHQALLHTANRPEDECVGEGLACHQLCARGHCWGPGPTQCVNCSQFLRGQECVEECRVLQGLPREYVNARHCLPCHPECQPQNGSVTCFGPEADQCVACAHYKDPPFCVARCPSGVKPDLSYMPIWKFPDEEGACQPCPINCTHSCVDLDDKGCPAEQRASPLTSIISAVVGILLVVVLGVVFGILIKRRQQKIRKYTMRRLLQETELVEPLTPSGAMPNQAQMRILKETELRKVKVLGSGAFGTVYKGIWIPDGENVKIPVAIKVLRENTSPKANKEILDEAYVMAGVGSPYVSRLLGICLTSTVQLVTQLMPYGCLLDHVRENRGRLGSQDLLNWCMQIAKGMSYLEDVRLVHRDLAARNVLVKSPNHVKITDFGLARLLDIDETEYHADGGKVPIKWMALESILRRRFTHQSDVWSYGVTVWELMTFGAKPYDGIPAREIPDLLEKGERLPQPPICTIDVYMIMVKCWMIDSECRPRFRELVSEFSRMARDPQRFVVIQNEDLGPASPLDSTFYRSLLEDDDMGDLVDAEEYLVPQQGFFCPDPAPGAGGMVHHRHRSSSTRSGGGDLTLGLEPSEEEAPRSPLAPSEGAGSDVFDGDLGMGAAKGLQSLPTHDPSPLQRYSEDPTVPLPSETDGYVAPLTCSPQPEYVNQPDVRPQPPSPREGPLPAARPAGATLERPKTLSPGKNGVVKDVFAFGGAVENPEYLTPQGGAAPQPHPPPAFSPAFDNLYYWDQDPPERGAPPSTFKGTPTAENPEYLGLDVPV

inhibition at 20 µM (ErbB2; 20 µM, Table 3, read-out: % inhib. at 20 µM, ErbB2 (Eurofins), printed as symbol): < 50%
% inhibition of control activity, ErbB2 (Eurofins) (ErbB2; compound 20 µM, mean (SD), above 50% significant, 25-50% weak): -1.3 (1.8) % inhibition
inhibition at 20 µM (BRAF): < 50%
% control, PI3K (DiscoverX) (PI3K [1]): 100 % control
% inhibition of control activity, PI3K (Eurofins) (PI3K [2]): -6.7 (2.3) % inhibition
Compound: COC(=O)Cc1ccc(Oc2ncnc3sc4c(c23)CC[C@@H](C)C4)cc1 (racemic) [DS39984]
